≈ marks a conversion by molar mass, not a printed value. Calls of active or inactive are those of the source. The rule behind the calls is not given here.
How the values were obtained:
[1] = Oral bioavailability in Wistar rat at 10 mg/kg; format: ADME, organism-based; settings: in vivo
[2] = Half life in dog at 0.5 mg/kg, iv; format: ADME, organism-based, Canis lupus familiaris; settings: in vivo
[3] = AUC in Wistar rat plasma at 10 mg/kg, po; format: ADME, organism-based
[4] = Solubility of compound in pH 6.5 FASSIF at 2 mg measured for 5 to 60 mins by UV spectroscopic method; format: physicochemical
[5] = Clearance in Wistar rat at 3 mg/kg, iv; format: ADME, organism-based; settings: in vivo
[6] = test system: Mus musculus; assay: Anti Steato-hepatitic activity in STZ/HFD induced C57BL/6J mouse STAM model assessed as reduction in fibrosis at 3 to 30 mg/kg, po administered via oral gavage once daily for 3 weeks and measured on 9 week by Picro-Sirius Red staining based assay; format: functional, organism-based
[7] = Oral bioavailability in Wistar rat at 300 mg/kg; format: ADME, organism-based; settings: in vivo
[8] = Half life in Wistar rat at 3 mg/kg, iv; format: ADME, organism-based; settings: in vivo
[9] = Half life in Wistar rat at 10 mg/kg, po; format: ADME, organism-based; settings: in vivo
[10] = AUC in Wistar rat at 10 mg/kg, po; format: ADME, organism-based; settings: in vivo
[11] = Cmax in Wistar rat at 300 mg/kg, po; format: ADME, organism-based; design: dose 300 mg/kg, route oral; settings: in vivo
[12] = target: T1, Glucocorticoid receptor (Homo sapiens, UniProt P04150); assay: Agonist activity at GAL4-fused Glucocorticoid receptor (unknown origin) expressed in HEK293T cells incubated for 24 by BrightGlo reagent based assay; format: cell-based
T1 sequence (P04150 whole entry): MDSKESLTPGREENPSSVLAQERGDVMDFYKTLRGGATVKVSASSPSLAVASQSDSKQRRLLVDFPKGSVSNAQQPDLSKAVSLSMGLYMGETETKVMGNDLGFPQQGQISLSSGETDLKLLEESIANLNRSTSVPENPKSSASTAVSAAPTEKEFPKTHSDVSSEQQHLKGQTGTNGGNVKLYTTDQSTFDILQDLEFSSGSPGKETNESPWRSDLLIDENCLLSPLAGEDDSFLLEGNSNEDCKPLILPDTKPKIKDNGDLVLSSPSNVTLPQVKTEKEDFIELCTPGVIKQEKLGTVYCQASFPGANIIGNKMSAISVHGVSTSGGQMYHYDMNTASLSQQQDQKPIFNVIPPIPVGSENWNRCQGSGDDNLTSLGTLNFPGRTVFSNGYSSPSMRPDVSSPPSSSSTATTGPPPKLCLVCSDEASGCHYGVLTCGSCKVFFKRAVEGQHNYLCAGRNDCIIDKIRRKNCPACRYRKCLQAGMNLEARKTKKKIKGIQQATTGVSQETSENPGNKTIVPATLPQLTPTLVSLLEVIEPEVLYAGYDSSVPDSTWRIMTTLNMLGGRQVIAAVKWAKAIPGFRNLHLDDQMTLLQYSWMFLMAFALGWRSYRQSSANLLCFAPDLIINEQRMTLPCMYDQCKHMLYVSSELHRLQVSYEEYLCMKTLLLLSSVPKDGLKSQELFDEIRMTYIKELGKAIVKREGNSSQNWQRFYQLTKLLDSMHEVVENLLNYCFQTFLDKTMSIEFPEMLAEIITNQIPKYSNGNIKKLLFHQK

[13] = target: T2, Bile acid receptor (Homo sapiens, UniProt Q96RI1); assay: Agonist activity at FXR transfected in human HEK293T cells o-expressing pGL3/hBSEP/luc incubated for 24 hrs by Steady-Glo reagent based luciferase reporter gene assay; format: cell-based
T2 sequence (Q96RI1 whole entry): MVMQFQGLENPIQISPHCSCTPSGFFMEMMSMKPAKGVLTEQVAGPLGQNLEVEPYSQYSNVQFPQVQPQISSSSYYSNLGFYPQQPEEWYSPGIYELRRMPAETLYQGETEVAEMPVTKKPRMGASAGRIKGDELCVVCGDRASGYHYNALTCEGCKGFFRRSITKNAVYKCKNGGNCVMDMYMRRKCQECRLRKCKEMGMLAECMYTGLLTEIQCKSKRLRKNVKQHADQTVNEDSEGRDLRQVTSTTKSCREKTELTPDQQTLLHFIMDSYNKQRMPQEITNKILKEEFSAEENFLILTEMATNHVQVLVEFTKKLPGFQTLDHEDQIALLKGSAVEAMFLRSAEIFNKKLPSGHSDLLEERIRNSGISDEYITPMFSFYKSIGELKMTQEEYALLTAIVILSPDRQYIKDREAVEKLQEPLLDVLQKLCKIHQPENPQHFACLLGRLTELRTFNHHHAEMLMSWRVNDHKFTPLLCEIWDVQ

[14] = test system: Rattus norvegicus; assay: In-vivo agonist activity at FXR in orally dosed Han Wistar rat assessed as repression of CYP8b1 mRNA level in liver administered via oral gavage once daily for 14 days measured post last dose by qRT-PCR analysis; format: functional, organism-based
[15] = Lipophilicity, logD of compound at pH 6.8; format: physicochemical; settings: buffer
[16] = target: T1, Glucocorticoid receptor; assay: Agonist activity at Glucocorticoid receptor (unknown origin) incubated for 2 hrs by TR-FRET assay
[17] = target: T3, Bile acid receptor (Rattus norvegicus) (UniProt Q62735); assay: Agonist activity at FXR in rat primary hepatocytes assessed as increase in SHP mRNA level incubated for 24 hrs by qRT-PCR analysis relative to tropifexor; format: cell-based
T3 sequence (whole entry): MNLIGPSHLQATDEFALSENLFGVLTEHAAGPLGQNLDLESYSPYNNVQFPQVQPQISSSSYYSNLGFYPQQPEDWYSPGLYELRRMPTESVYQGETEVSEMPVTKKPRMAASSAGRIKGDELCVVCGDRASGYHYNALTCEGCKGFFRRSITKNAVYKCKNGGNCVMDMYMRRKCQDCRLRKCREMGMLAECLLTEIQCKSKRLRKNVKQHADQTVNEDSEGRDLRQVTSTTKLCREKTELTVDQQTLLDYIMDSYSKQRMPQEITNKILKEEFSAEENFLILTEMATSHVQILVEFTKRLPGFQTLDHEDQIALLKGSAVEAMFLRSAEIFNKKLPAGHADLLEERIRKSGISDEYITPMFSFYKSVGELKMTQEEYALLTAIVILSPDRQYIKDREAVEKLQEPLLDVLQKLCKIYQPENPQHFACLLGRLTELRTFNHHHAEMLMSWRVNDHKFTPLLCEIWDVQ

[18] = AUC in Wistar rat liver at 10 mg/kg, po; format: ADME, organism-based
[19] = Half life in Wistar rat at 100 mg/kg, po; format: ADME, organism-based; settings: in vivo

Cn1nc(C(=O)N(Cc2ccccc2)Cc2ccc(C(=O)O)cc2)c2c1-c1cc(Cl)ccc1OC2 [NIDUFEXOR]
bioavailability [1]: 52% | half-life [2]: 6.8 h | AUC [3]: 24.5 µM·h | solubility [4]: 3 µM (≈ 1.46 µg/mL) | clearance [5]: 7 mL/min/kg | Activity [6]: Active | bioavailability [7]: 72% | half-life [8]: 3 h | half-life [9]: 5.7 h | AUC [10]: 25.4 µM·h | Cmax [11]: 141 µM | EC50 [12]: > 10 µM | EC50 [13]: 0.032 µM | Activity [14]: Active | logD [15]: 2.7 | EC50 [16]: > 30 µM | Activity [17]: 65% | AUC [18]: 36.7 µM·h | half-life [19]: 5.6 h

Source: ChEMBL document CHEMBL4402557, “Nidufexor (LMB763), a Novel FXR Modulator for the Treatment of Nonalcoholic Steatohepatitis” (J Med Chem, 2020)
